One series concerns pBR322 DNA. Briefly: DNA binding assay: fluorescence quenching, displacement of ethidium bromide and Hoechst dye 33258. Particulars: for QH50: concentration displacing 50% of Hoechst dye 33258 (groove binder) from DNA; for QE50: concentration displacing 50% of ethidium bromide (intercalator) from DNA. The source says: The present inventors have now determined that the introduction of appropriately positioned, conformationally restricted groups into the spacer group of spacer-linked anthraquinone-amino acid or peptide conjugates, allows control of the affinity and mode of binding to DNA. This affinity and mode of binding to DNA is readily determined by fluorescence quenching experiments in which the Q50 values for displacement of ethidium bromide, a DNA intercalator, and for Hoechst 33258 dye, a DNA minor-groove-binder, from which their fluorescent DNA-bound complexes are measured and expressed in μM units of drug concentration (see PCT/GB99/01901 incorporated herein by reference).
The propensity of selected compounds to bind to DNA in the absence of topos was measured in order to identify compounds that would bind weakly, or not at all. […] A […] was used determine binding constants of the compound to DNA by displacement of either ethidium bromide (an intercalator) or Hoechst dye 33258 (a groove binder) which form a DNA-bound fluorescent complex measured by fluorescence spectroscopy.
DNA Binding Assay Protocol
In order to detect the strength and mode of anthraquinone compound binding to DNA the displacement of known DNA binders was detected by measuring the fluorescence of a DNA/fluorescent compound complex. The addition of known concentrations of ethidium bromide, an interchelator, and Hoescht Dye, a groove binder, cause a fluorescent DNA/binder complex that can be detected and the fluorescence quantified. The addition of anthraquinone compounds displaces the interchelators or groove binders, depending on the compound mode of DNA binding, and therefore reduces the fluorescence accordingly. The preferred binding action of compounds can be quantified by determining the reduction in fluorescence resulting from a given concentration of compound. The quantification of a compounds ability to bind to DNA is expressed, as the concentration required to displace 50% of the ethidium bromide or Hocscht Dye, thus reducing the fluorescence by 50%. Therefore, the values produced are QE50 for ethidium, bromide, or QH50 for Hoescht Dye.
Compound: 300, 60, 10 and 10/6 µM (1.66 μM) solution concentrations were prepared for use in the assay to produce a range of compound. Concentrations. 100, 200 and 300 μl of each dilution were used in the assay reaction. This provides a range of concentrations: −30, 20, 10, 6, 4, 2, 1, 0.67, 0.33, 0.17, 0.11, 0.06, 0.00 μM in the assay environment. Intermediate concentrations can be utilised to enhance the accuracy of the displacement concentration determination.
Buffer: 100 mM Tris, NaCI 500 mM. […] Stock solution of 200 μM was prepared in 10× assay buffer. Dilution of DNA therefore provided the correct concentration of assay buffer in the assay cell. 300 μg DNA was used in 3 ml reaction mixture therefore 20 μM DNA concentration. Hoescht Dye 2 μM final concentration, therefore 100 μl of a 60 μM stock solution was added to a 3 ml assay. Ethidium Bromide 2 μM final concentration therefore 100 μl of a 60 μM stock solution was added to a 3 ml assay. Distilled H2O Water was added to produce 3 ml reaction volume. Order of addition: 1. DNA, 2. Water, 3. Drug, 4. Dye
The assay was completed with both Hoescht Dye and Ethidium. Bromide for each compound. The ethidium bromide is a DNA inter-chelator, Hoescht Dye is a minor groove binder. 100, 200 and 30 gμ of the lowest compound dilution was assayed. This procedure was repeated with all further dilution's. This provided a curve of fluorescence intensity decrease with increasing compound concentration. QE50 and QH50 values were determined by extrapolating the concentration of compound at the point where the fluorescence intensity was reduced by 50%. Controls involving compound only and ethidium. bromide or Hoechst Dye without compound were carried out for each experiment. […]

Another series has as its system MAC 15A cells. Briefly: In vitro activity against MAC 15A adenocarcinoma (MTT assay). Particulars: MAC15A colon adenocarcinoma, 96 hours continuous exposure. It is filed as cell-based. As for the experimental part:
MAC 15A cells were grown in RPMI 1640 medium supplemented with 10% foetal calf serum containing a 1% antibiotic mixture under standard tissue culture conditions and were maintained at 37° C. in a humidified atmosphere of 5% CO2 in air. Cells were harvested from a stock culture in exponential growth phase and plated in 96-well flat-bottomed plates to achieve a final density of 2×10^3 cells per well. After 2 hours incubation medium was replaced with either fresh medium containing 0.5% DMSO (control) or medium containing test compound dissolved in DMSO at a concentrations from 10 mM to 1 nM. Chemosensitivity was assessed using MTT assay by the method of Plumb et al Cancer Research 49 (1989) 4435-4440.
Following 96 hours continuous exposure to drug at 37° C. cells were incubated with fresh drug-free medium immediately prior to addition of MTT solution (5 mg/ml). Medium and MTT were removed after 4 hours and 150 μl of DMSO was added. For each plate the absorbance of the resulting solution was measured at the analytical wavelength 550 nm for formnazan product, using a Labsystem Mutiskan. IC50 values were obtained from growth curves of drug concentration against % survival and are expressed in μm.
In vitro Cytotoxicity of Spacer Limked Anthraquinone Peptide Conjugates on MAC15A Colon Adenocarcinoma
On the technique in general: Formazan colour is commonly taken as a measure of viable cells.

Series [1] concerns the target T1, topo I (Homo sapiens, UniProt P11387).
T1 sequence (P11387 1-765): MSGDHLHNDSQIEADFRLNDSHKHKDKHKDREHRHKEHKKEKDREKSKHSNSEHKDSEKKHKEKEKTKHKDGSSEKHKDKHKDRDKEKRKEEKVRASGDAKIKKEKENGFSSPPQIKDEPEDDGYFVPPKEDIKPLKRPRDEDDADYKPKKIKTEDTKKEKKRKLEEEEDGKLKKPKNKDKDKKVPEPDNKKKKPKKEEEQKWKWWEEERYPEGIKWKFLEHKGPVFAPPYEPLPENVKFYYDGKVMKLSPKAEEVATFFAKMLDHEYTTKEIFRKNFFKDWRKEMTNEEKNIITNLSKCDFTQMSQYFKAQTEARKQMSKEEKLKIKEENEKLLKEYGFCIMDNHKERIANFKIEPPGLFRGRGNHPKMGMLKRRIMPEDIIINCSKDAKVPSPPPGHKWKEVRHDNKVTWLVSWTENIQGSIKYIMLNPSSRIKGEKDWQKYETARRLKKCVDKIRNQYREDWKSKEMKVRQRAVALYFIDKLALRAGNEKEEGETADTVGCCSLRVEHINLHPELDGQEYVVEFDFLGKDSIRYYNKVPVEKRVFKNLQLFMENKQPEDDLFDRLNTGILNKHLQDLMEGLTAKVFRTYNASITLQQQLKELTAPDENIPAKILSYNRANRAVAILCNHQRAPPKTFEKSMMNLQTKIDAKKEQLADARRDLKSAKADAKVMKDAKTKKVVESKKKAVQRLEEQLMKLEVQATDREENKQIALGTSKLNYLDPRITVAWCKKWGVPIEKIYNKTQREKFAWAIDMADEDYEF
Briefly: Inhibition of topoisomerase I mediated relaxation of pBR322 DNA. It is filed as biochemical.

The test system of another series is HL-60 Human Leukemia. The series can be described thus: In vitro cytotoxicity against HL-60 human leukemia. The series is classed as cell-based. The text has this: In vitro Cytotoxicity of Spacer-Linked Anthraquinone-Peptide Conjugates Against HL-60 Human Leukemia
Series [2] deals with T1, topo I. Briefly: Stimulation of topoisomerase I mediated cleavage of pBR322 DNA. It is filed as biochemical. Particulars: for nicked plasmid DNA (topo I mediated cleavage): at 25 μM. The text has this:
To determine the effect of the newly synthesised compounds on the catalytic activity of topo I and II (α and β), specific tests measuring relaxation, decatenation and enzyme-mediated cleavage of DNA were employed using purified human topos.
Simulation of Topoisomerase I Mediated Cleavage of pBR322DNA by Spacer-Linked Anthraquinone-Peptide Conjugates

The target of series [3] is T1, topo I. Briefly: Immunoband depletion of topoisomerase I in HL-60 cells. The series is classed as cell-based. Details: endogenous in cells; host or cells: HL-60 human leukemia cells. As for the experimental part: Immunoband Depletion of Topoisomerase I
The data provides good evidence for ternary complex (drug-DNA-enzyme) formation in viable whole cells.
The method was adapted from Boege and Andersen [Selected novel flavones inhibit the DNA binding or the DNA religation step of cukaryotic topoisomerase I, F. Boege, T. Straub, A. Kehr, C. Boesenberg, K. Christiansen, A. Andersen, F. Jakob, J, Kohrle, J. Biol. Chem., 271, 2262, (1996)]; briefly, 10^6 HL-60 cells were cultivated for 1 h with and without drugs. Reactions were terminated by sedimentation of the cells (1000×g, 5 min, 4° C.) and subsequent lysis in PBS/NP40, RIPA buffer containing pepstatin and leupeptin. Samples were subjected to SDS-polyacrylamide (8%) gel electrophoresis and proteins that had entered the gel were electrophoretically transferred to nitro-cellulose sheets by the semi-dry method. Immunstaining of immobilised proteins was carried out using a polyclonal Ab of human topo I [topogen], and subsequently anti-human Ig biotinylated whole Ab (sheep)[Amersham], streptavidin horse-radish peroxidase and the ECL system [Amersham].

For `O=C1c2c(O)ccc(O)c2C(=O)c2c(NCCNCCO)ccc(NCCNCCO)c21` [Mitoxantrone, reference compound], in the series on pBR322 DNA, the QH50 is 1.0 µM and the QE50 came to 0.35 µM.

In general, IC50 refers to the concentration that gives 50% inhibition. Read a high IC50 as weaker potency. In turn, “1-(2-β-alanylpiperazinyl)anthracene-9,10-dione trifluoroacetate salt [Example 15]” displayed an IC50 in the series with MAC 15A cells of 20 µM. In the series on pBR322 DNA, this molecule displayed a QH50 of 1.6 µM and a QE50 of 11.4 µM.

With `C[C@H](N)C(=O)N1CCN(c2cccc3c2C(=O)c2ccccc2C3=O)CC1.O=C(O)C(F)(F)F` [Example 17, 1-(1-L-alanylpiperazinyl)anthracene-9,10-dione trifluoroacetate salt], the IC50 in the series with MAC 15A cells was 25 µM; in the series on HL-60 Human Leukemia, 10.7 µM. Also, the “DNA-topoisomerase activity: inhibition of topo I relaxation” value (from here on “DNA-topoisomerase activity: inhibition”) on topo I [1] (at 25 μM) is “COMPLETE inhibition at 25 μM”. Moreover, on topo I [2], the “nicked plasmid DNA (topo I mediated cleavage)” value (shortened to “nicked plasmid DNA”) is on record as 10% nicked plasmid DNA at 25 μM.

On to `N[C@@H](Cc1ccccc1)C(=O)NC1CCC(Nc2cccc3c2C(=O)c2ccccc2C3=O)CC1.O=C(O)C(F)(F)F` (stereo partly drawn) [Example 26, (2S)-2-amino-N-{4-[(9,10-dioxoanthryl)amino]cyclohexyl}-3-phenylpropanamide trifluoroacetate salt], for which the “intensity of the (100 kDa) topo I band” value on topo I [3] (1 h with drug, in comparison with camptothecin) is reported as “Reductions in the intensity of the (100 kDa) topo I band were observed”. In addition, the “extent of immunoband depletion” value at topo I [3] (above 200 μM) is reported as “comparable to the effect of camptothecin at 50 μM”. This molecule also registered an IC50 with MAC 15A cells of 3.5 µM. Further, the “DNA-topoisomerase activity: inhibition” value at topo I [1] (between 25-100 μM) is reported as “NO inhibition between 25-100 μM”. In addition, the “nicked plasmid DNA” value at topo I [2] was 45% nicked plasmid DNA at 25 μM. In the series on pBR322 DNA, this molecule came in with a QH50 of 2.3 µM and a QE50 of 6.5 µM.

In the case of “(2R)-2-amino-N-{4-[(9,10-dioxoanthryl)amino]cyclohexyl}-3-phenylpropanamide trifluoroacetate salt [Example 28]”, in the series on MAC 15A cells, the midpoint of inhibition, the IC50, lay at 8 µM. In addition, on topo I [1] (at 50 μM), the “DNA-topoisomerase activity: inhibition” value is recorded as “PARTIAL inhibition at 50 μM”. For the same molecule, the “nicked plasmid DNA” value on topo I [2] is 20% nicked plasmid DNA at 25 μM.

Usually melting point stands for the temperature, or range, at which the solid turns liquid. Take `CN(CCO)c1cccc2c1C(=O)c1c(cccc1N(C)CCO)C2=O`: the melting point was 168 to 178 °C.

For `O=C1c2ccccc2C(=O)c2c1cccc2N1CCNCC1`, the melting point worked out at 190 °C.

On to `O=C(O)C(F)(F)F.O=C1c2ccccc2C(=O)c2c1cccc2N1CCNCC1` [Example 4b, 1-(1-piperazinyl)anthracene-9,10-dione trifluoroacetate salt], for which the melting point amounted to 170 °C. Further, in the series with pBR322 DNA, the QH50 was found to be 1.7 µM and the QE50 amounted to 10.5 µM.

In turn, `Nc1ccc(Nc2cccc3c2C(=O)c2ccccc2C3=O)cc1` returned a melting point of 175 to 182 °C.

Regarding `N[C@@H](Cc1ccccc1)C(=O)N1CCN(c2cccc3c2C(=O)c2ccccc2C3=O)CC1.O=C(O)C(F)(F)F` [Example 21, 1-(1-L-phenylalanylpiperazinyl)anthracene-9,10-dione trifluoroacetate salt], the “DNA-topoisomerase activity: inhibition” value at topo I [1] (at 10 μM) is reported as “COMPLETE inhibition at 10 μM”. The “DNA-topoisomerase activity: topo I mediated cleavage” value on topo I [2] (between 10-100 μM) is listed as “NO CLEAVAGE between 10-100 μM”.

Source of the values: patent publication US20030130272A1, “Anthracene derivatives as anti-cancer agents” (priority 1999, published 2003).
